What was measured:
Assay in all cases: Kinase inhibitor library screening, PrestoBlue cell viability, 1 or 10 μM, 72 h
IGR37 cells (parental) = conditions: IGR37 Parental, 72 h; for cell viability, IGR37 Parental, 1μΜ / cell viability, IGR37 Parental, 10μΜ: in %
Protocol: (§1) After 72 h of treatment, cell viability was assessed using the PrestoBlue Cell Viability Reagent (ThermoFisher Scientific). Measurements were performed with the CLARIOstar Monochromator microplate reader (BMG Labtech).
(§2) Kinase inhibitor library screening. […] Each cell line was treated in its sensitive form (parental), and also as 2 resistant derivatives, which were made resistant to either Vemurafenib (XP) or Dabrafenib (GP). Drugs were added at 2 different concentrations, 1 and 10 μM, for 72 h and cell viability was assessed using the PrestoBlue Cell Viability assay. Results are depicted as % viability compared to untreated cells. Each cell line was analyzed at least in duplicate. […] (XLSX 95 kb)

[1] = tested on: 501Mel-GP cells (Dabrafenib-resistant); conditions: 501Mel GP, 72 h; for cell viability, 501Mel GP, 10μΜ / cell viability, 501Mel GP, 1μΜ: in %
Protocol: as §1, §2

501Mel cells (parental) = conditions: 501Mel Parental, 72 h; for cell viability, 501Mel Parental, 1μΜ / cell viability, 501Mel Parental, 10μΜ: in %
Protocol: as §1, §2

[2] = tested on: 501Mel-XP cells (Vemurafenib-resistant); conditions: 501Mel XP, 72 h; for cell viability, 501Mel XP, 1μΜ / cell viability, 501Mel XP, 10μΜ: in %
Protocol: as §1, §2

[3] = tested on: A375-GP cells (Dabrafenib-resistant); conditions: A375 GP, 72 h; for cell viability, A375 GP, 10μΜ / cell viability, A375 GP, 1μΜ: in %
Protocol: as §1, §2

[4] = tested on: A375-XP cells (Vemurafenib-resistant); conditions: A375 XP, 72 h; for cell viability, A375 XP, 1μΜ / cell viability, A375 XP, 10μΜ: in %
Protocol: as §1, §2

A375 cells (parental) = conditions: A375 Parental, 72 h; for cell viability, A375 Parental, 10μΜ / cell viability, A375 Parental, 1μΜ: in %
Protocol: as §1, §2

[5] = tested on: IGR37-GP cells (Dabrafenib-resistant); conditions: IGR37 GP, 72 h; for cell viability, IGR37 GP, 1μΜ: in %
Protocol: as §1, §2

[6] = tested on: IGR37-XP cells (Vemurafenib-resistant); conditions: IGR37 XP, 72 h; for cell viability, IGR37 XP, 1μΜ: in %
Protocol: as §1, §2

## CCN1CCN(C(=O)Cc2ccc(Nc3ncc(F)c(Nc4ccc(C(=O)Nc5ccccc5Cl)cc4)n3)cc2)CC1 [Aurora A Inhibitor I]
IGR37 cells (parental); 1μΜ
  cell viability (kinase inhibitor library screening): 94.5%
IGR37 cells (parental); 10μΜ
  cell viability (kinase inhibitor library screening): 4.6%
[1]; 1μΜ
  cell viability (kinase inhibitor library screening): 99.5%
[1]; 10μΜ
  cell viability (kinase inhibitor library screening): 29.4%
501Mel cells (parental); 1μΜ
  cell viability (kinase inhibitor library screening): 105.7%
501Mel cells (parental); 10μΜ
  cell viability (kinase inhibitor library screening): 41.4%
[2]; 1μΜ
  cell viability (kinase inhibitor library screening): 75.4%
[2]; 10μΜ
  cell viability (kinase inhibitor library screening): 4.3%
[3]; 1μΜ
  cell viability (kinase inhibitor library screening): 90.9%
[3]; 10μΜ
  cell viability (kinase inhibitor library screening): 42.7%
[4]; 1μΜ
  cell viability (kinase inhibitor library screening): 95.8%
[4]; 10μΜ
  cell viability (kinase inhibitor library screening): 37.0%
A375 cells (parental); 10μΜ
  cell viability (kinase inhibitor library screening): 48.5%
A375 cells (parental); 1μΜ
  cell viability (kinase inhibitor library screening): 96.9%
[5]; 1μΜ
  cell viability (kinase inhibitor library screening): 90.4%
[5]; 10μΜ
  cell viability (kinase inhibitor library screening): 5.3%
[6]; 1μΜ
  cell viability (kinase inhibitor library screening): 92.1%
[6]; 10μΜ
  cell viability (kinase inhibitor library screening): 2.4%

## CN1CCN(c2cccc(Nc3nc4c(-c5ccc(S(C)(=O)=O)cc5)cccn4n3)c2)CC1 [CEP33779]
IGR37 cells (parental); 1μΜ
  cell viability, IGR37 Parental, 1μΜ: 103.9
IGR37 cells (parental); 10μΜ
  cell viability, IGR37 Parental, 10μΜ: 83.9
[1]; 10μΜ
  cell viability, 501Mel GP, 10μΜ: 81.6
501Mel cells (parental); 1μΜ
  cell viability, 501Mel Parental, 1μΜ: 94.5
501Mel cells (parental); 10μΜ
  cell viability, 501Mel Parental, 10μΜ: 91.1
[2]; 1μΜ
  cell viability, 501Mel XP, 1μΜ: 88.8
[2]; 10μΜ
  cell viability, 501Mel XP, 10μΜ: 71.8
[3]; 10μΜ
  cell viability, A375 GP, 10μΜ: 77.6
[4]; 1μΜ
  cell viability, A375 XP, 1μΜ: 100.1
[4]; 10μΜ
  cell viability, A375 XP, 10μΜ: 88.6
A375 cells (parental); 10μΜ
  cell viability, A375 Parental, 10μΜ: 76.5
[5]; 10μΜ
  cell viability, IGR37 GP, 10μΜ: 67.9%
[5]; 1μΜ
  cell viability, IGR37 GP, 1μΜ: 93.0
[6]; 10μΜ
  cell viability, IGR37 XP, 10μΜ: 28.8%
[6]; 1μΜ
  cell viability, IGR37 XP, 1μΜ: 90.4

## C#Cc1cccc(Nc2ncnc3cc(OCCOC)c(OCCO)cc23)c1 [Desmethyl Erlotinib (CP-473420)]
IGR37 cells (parental); 1μΜ
  cell viability, IGR37 Parental, 1μΜ: 99.9
IGR37 cells (parental); 10μΜ
  cell viability, IGR37 Parental, 10μΜ: 92.4
[1]; 1μΜ
  cell viability, 501Mel GP, 1μΜ: 107.4
[1]; 10μΜ
  cell viability, 501Mel GP, 10μΜ: 74.9
501Mel cells (parental); 10μΜ
  cell viability, 501Mel Parental, 10μΜ: 82.4
[2]; 1μΜ
  cell viability, 501Mel XP, 1μΜ: 100.0
[2]; 10μΜ
  cell viability, 501Mel XP, 10μΜ: 41.7
[3]; 10μΜ
  cell viability, A375 GP, 10μΜ: 65.7
[4]; 1μΜ
  cell viability, A375 XP, 1μΜ: 100.2
[4]; 10μΜ
  cell viability, A375 XP, 10μΜ: 81.3
A375 cells (parental); 1μΜ
  cell viability, A375 Parental, 1μΜ: 104.3
A375 cells (parental); 10μΜ
  cell viability, A375 Parental, 10μΜ: 78.2
[5]; 10μΜ
  cell viability, IGR37 GP, 10μΜ: 73.5%
[5]; 1μΜ
  cell viability, IGR37 GP, 1μΜ: 85.7
[6]; 10μΜ
  cell viability, IGR37 XP, 10μΜ: 49.7%
[6]; 1μΜ
  cell viability, IGR37 XP, 1μΜ: 80.3

## O=c1cc(N2CCOCC2)oc2c(-c3cccc4c3sc3ccccc34)cccc12 [NU7441(KU-57788)]
IGR37 cells (parental); 1μΜ
  cell viability, IGR37 Parental, 1μΜ: 96.8
IGR37 cells (parental); 10μΜ
  cell viability, IGR37 Parental, 10μΜ: 98.9
[1]; 1μΜ
  cell viability, 501Mel GP, 1μΜ: 93.7
[1]; 10μΜ
  cell viability, 501Mel GP, 10μΜ: 32.9
501Mel cells (parental); 10μΜ
  cell viability, 501Mel Parental, 10μΜ: 61.0
[2]; 10μΜ
  cell viability, 501Mel XP, 10μΜ: 10.9
[3]; 1μΜ
  cell viability, A375 GP, 1μΜ: 92.7
[3]; 10μΜ
  cell viability, A375 GP, 10μΜ: 47.4
[4]; 1μΜ
  cell viability, A375 XP, 1μΜ: 98.6
[4]; 10μΜ
  cell viability, A375 XP, 10μΜ: 55.7
A375 cells (parental); 1μΜ
  cell viability, A375 Parental, 1μΜ: 98.8
A375 cells (parental); 10μΜ
  cell viability, A375 Parental, 10μΜ: 52.7
[5]; 10μΜ
  cell viability, IGR37 GP, 10μΜ: 49.3%
[5]; 1μΜ
  cell viability, IGR37 GP, 1μΜ: 92.2
[6]; 10μΜ
  cell viability, IGR37 XP, 10μΜ: 20.1%
[6]; 1μΜ
  cell viability, IGR37 XP, 1μΜ: 99.7

## CNC(=O)c1cc(Oc2ccc(NC(=O)Nc3ccc(Cl)c(C(F)(F)F)c3)c(F)c2)ccn1 [Regorafenib (BAY 73-4506)]
IGR37 cells (parental); 1μΜ
  cell viability (kinase inhibitor library screening): 94.8%
IGR37 cells (parental); 10μΜ
  cell viability (kinase inhibitor library screening): 42.7%
[1]; 1μΜ
  cell viability (kinase inhibitor library screening): 96.7%
[1]; 10μΜ
  cell viability (kinase inhibitor library screening): 48.3%
501Mel cells (parental); 1μΜ
  cell viability (kinase inhibitor library screening): 93.5%
501Mel cells (parental); 10μΜ
  cell viability (kinase inhibitor library screening): 53.2%
[2]; 1μΜ
  cell viability (kinase inhibitor library screening): 93.6%
[2]; 10μΜ
  cell viability (kinase inhibitor library screening): 47.1%
[3]; 1μΜ
  cell viability (kinase inhibitor library screening): 48.9%
[3]; 10μΜ
  cell viability (kinase inhibitor library screening): 22.9%
[4]; 1μΜ
  cell viability (kinase inhibitor library screening): 58.9%
[4]; 10μΜ
  cell viability (kinase inhibitor library screening): 18.1%
A375 cells (parental); 10μΜ
  cell viability (kinase inhibitor library screening): 32.8%
A375 cells (parental); 1μΜ
  cell viability (kinase inhibitor library screening): 96.5%
[5]; 1μΜ
  cell viability (kinase inhibitor library screening): 89.9%
[5]; 10μΜ
  cell viability (kinase inhibitor library screening): 47.7%
[6]; 1μΜ
  cell viability (kinase inhibitor library screening): 88.9%
[6]; 10μΜ
  cell viability (kinase inhibitor library screening): 14.8%

## O=C(NOCC(O)CO)c1cc(Br)c(F)c(F)c1Nc1ccc(I)cc1F (stereo not shown) [PD318088]
IGR37 cells (parental); 1μΜ
  cell viability, IGR37 Parental, 1μΜ: 37.8
IGR37 cells (parental); 10μΜ
  cell viability, IGR37 Parental, 10μΜ: 36.8
[1]; 1μΜ
  cell viability, 501Mel GP, 1μΜ: 99.4
[1]; 10μΜ
  cell viability, 501Mel GP, 10μΜ: 79.2
501Mel cells (parental); 1μΜ
  cell viability, 501Mel Parental, 1μΜ: 54.5
501Mel cells (parental); 10μΜ
  cell viability, 501Mel Parental, 10μΜ: 54.4
[2]; 1μΜ
  cell viability, 501Mel XP, 1μΜ: 84.8
[2]; 10μΜ
  cell viability, 501Mel XP, 10μΜ: 57.7
[3]; 1μΜ
  cell viability, A375 GP, 1μΜ: 31.6
[3]; 10μΜ
  cell viability, A375 GP, 10μΜ: 15.6
[4]; 1μΜ
  cell viability, A375 XP, 1μΜ: 36.7
[4]; 10μΜ
  cell viability, A375 XP, 10μΜ: 11.2
A375 cells (parental); 1μΜ
  cell viability, A375 Parental, 1μΜ: 19.2
A375 cells (parental); 10μΜ
  cell viability, A375 Parental, 10μΜ: 16.4
[5]; 10μΜ
  cell viability, IGR37 GP, 10μΜ: 66.4%
[5]; 1μΜ
  cell viability, IGR37 GP, 1μΜ: 76.0
[6]; 10μΜ
  cell viability, IGR37 XP, 10μΜ: 22.8%
[6]; 1μΜ
  cell viability, IGR37 XP, 1μΜ: 63.3

## CC(=O)Nc1cccc(-n2c(=O)n(C3CC3)c(=O)c3c(Nc4ccc(I)cc4F)n(C)c(=O)c(C)c32)c1 [GSK1120212 (Trametinib)]
IGR37 cells (parental); 1μΜ
  cell viability, IGR37 Parental, 1μΜ: 37.2
IGR37 cells (parental); 10μΜ
  cell viability, IGR37 Parental, 10μΜ: 36.1
[1]; 1μΜ
  cell viability, 501Mel GP, 1μΜ: 90.4
[1]; 10μΜ
  cell viability, 501Mel GP, 10μΜ: 77.4
501Mel cells (parental); 1μΜ
  cell viability, 501Mel Parental, 1μΜ: 55.4
501Mel cells (parental); 10μΜ
  cell viability, 501Mel Parental, 10μΜ: 64.9
[2]; 1μΜ
  cell viability, 501Mel XP, 1μΜ: 75.6
[2]; 10μΜ
  cell viability, 501Mel XP, 10μΜ: 62.1
[3]; 1μΜ
  cell viability, A375 GP, 1μΜ: 18.8
[3]; 10μΜ
  cell viability, A375 GP, 10μΜ: 16.2
[4]; 1μΜ
  cell viability, A375 XP, 1μΜ: 14.9
[4]; 10μΜ
  cell viability, A375 XP, 10μΜ: 14.6
A375 cells (parental); 1μΜ
  cell viability, A375 Parental, 1μΜ: 21.7
A375 cells (parental); 10μΜ
  cell viability, A375 Parental, 10μΜ: 21.8
[5]; 10μΜ
  cell viability, IGR37 GP, 10μΜ: 56.9%
[5]; 1μΜ
  cell viability, IGR37 GP, 1μΜ: 89.3
[6]; 10μΜ
  cell viability, IGR37 XP, 10μΜ: 22.1%
[6]; 1μΜ
  cell viability, IGR37 XP, 1μΜ: 38.3

## CNC(=O)c1ccc(-c2cnc3ncc(Cc4ccc5ncccc5c4)n3n2)cc1F [INCB28060]
IGR37 cells (parental); 1μΜ
  cell viability (kinase inhibitor library screening): 106.9%
IGR37 cells (parental); 10μΜ
  cell viability (kinase inhibitor library screening): 100.3%
[1]; 1μΜ
  cell viability (kinase inhibitor library screening): 81.7%
[1]; 10μΜ
  cell viability (kinase inhibitor library screening): 67.0%
501Mel cells (parental); 1μΜ
  cell viability (kinase inhibitor library screening): 99.4%
501Mel cells (parental); 10μΜ
  cell viability (kinase inhibitor library screening): 93.5%
[2]; 1μΜ
  cell viability (kinase inhibitor library screening): 68.2%
[2]; 10μΜ
  cell viability (kinase inhibitor library screening): 62.9%
[3]; 1μΜ
  cell viability (kinase inhibitor library screening): 103.9%
[3]; 10μΜ
  cell viability (kinase inhibitor library screening): 95.7%
[4]; 1μΜ
  cell viability (kinase inhibitor library screening): 106.9%
[4]; 10μΜ
  cell viability (kinase inhibitor library screening): 103.3%
A375 cells (parental); 1μΜ
  cell viability (kinase inhibitor library screening): 103.1%
[5]; 1μΜ
  cell viability (kinase inhibitor library screening): 97.1%
[5]; 10μΜ
  cell viability (kinase inhibitor library screening): 85.7%
[6]; 1μΜ
  cell viability (kinase inhibitor library screening): 98.3%
[6]; 10μΜ
  cell viability (kinase inhibitor library screening): 47.6%
